From patent US20240277715A1, “COMBINATION THERAPIES COMPRISING A METTL3 INHIBITOR AND A FURTHER ANTICANCER AGENT” (Storm Therapeutics Limited, priority 2021, published 2024)

Legend:
[1] = test system: A20 mouse B cell lymphoma; assay: Subcutaneous A20 lymphoma syngeneic model, anti-tumour efficacy; type: in vivo
Excerpt: (§1) The in vivo effect of METTL3 inhibition in combination with anti-PD1 immune checkpoint inhibitor was investigated using syngeneic mouse tumour models in immune-competent hosts. Mouse tumour models can be grown in appropriate host strains and are widely used to investigate the effects of therapeutic agents on the immune system and cancer growth. There are a limited range of mouse syngeneic tumour models available, far fewer than human cell lines, and they are widely used in the art to support potential clinical utility of immune stimulatory approaches across multiple indications. We exemplify the potential role of STM3480 and combinations with immune checkpoint inhibitors such as anti-PD-1 antibodies in multiple tumour models including A20 (murine B cell lymphoma), EMT-6 (murine breast cancer) and CT-26 (murine colorectal cancer).
The objective of this study is to assess the anti-tumour efficacy of STM3480 in combination with anti-PD1 in subcutaneous A20 mouse B cell lymphoma cancer model in female BALB/c mice.
A20 (#ATCC TIB-208) mouse B cell lymphoma cells were cultured in (RPMI-1640+10% non H.I. FBS+0.05 mM 2-mercaptoethanol) media. 5×10^5 viable cells in 0.1 ml PBS were injected subcutaneously into the left flank of 7-9 week old female BALB/cN (BALB/cAnNCrl) Crl mice utilising 27 gauge needles following skin disinfection with 70% ethanol.
Tumours were measured three times a week and tumour volumes estimated using the formula 0.5 (L×W^2) by measuring the tumour in two dimensions using electronic callipers for the duration of the study.
Mice were randomly allocated to four treatment groups and treatment commenced when tumours reached a mean volume of ˜50-100 mm^3. Mice were allocated to their treatment groups with uniform mean tumour volume between groups. Treatment was continued for up to 3 weeks, or until individual mice were sacrificed for humane reasons according to Home Office license regulations (e.g. body weight loss >20%; tumour volume >1500 mm^3; tumour ulceration; loss of clinical condition). The final dose was given on day 32 after implantation.
Vehicle for STM3480—Hydroxypropyl-β-Cyclodextrin (HPBCD)/Sodium Acetate buffer pH:4.6 50 mM (10%/90%; w/v): Weigh 1.025 g of sodium acetate anhydrous. Add 700 μl of glacial acetic acid then make up to 500.0 ml with ultrapurified water. pH:4.6 50 mM.
For 1 ml volume 5 mg/ml STM3480 dosing solution: Weigh 5.0 mg of STM00003480 compound (Batch: EV-WZM001-421-002). Add 1.0 mL of HPBCD/Acetate buffer pH:4.6 50 mM (10%/90%; w/v). Magnetic stirring at high speed at ambient temperature; Overnight stirring may be required if there are any signs of precipitation. The formulation is a slight yellow solution with very few particles in suspension. Homogenize with a vortex before administration. […]

[2] = test system: CT26 mouse colorectal cancer; assay: Subcutaneous CT26 colorectal cancer syngeneic model, anti-tumour efficacy; type: in vivo; details: 10 per group
Excerpt: as §1
The objective of this study is to assess the anti-tumour efficacy of STM3480 in combination with anti-PD1 in subcutaneous CT26 mouse colorectal cancer model in female BALB/c mice. CT26.WT (CRL-2638) mouse […] cells were cultured in (RPMI—1640+10% FBS+2 mM L-Glutamine) media. […]
Tumours were measured three times a week and tumour volumes estimated using the formula 0.5 (L×W^2) by measuring the tumour in two dimensions using electronic callipers for the duration of the study. […]

Kasumi1 AML cell line = assay: AML cell viability, CellTiter-Glo combination matrix, Kasumi1; type: cell-based
Procedure: The sensitivity of AML cell lines to combinations of METTL3 inhibitor and standards of care was determined as described. Dose response curves of venetoclax were determined either alone or in the presence of different concentrations of METTL3 inhibitor that are known to be active in cells.
Synergistic interactions occur when the IC50 value decreases in the presence of METTL3 inhibitor. […] Antagonistic interactions occur when the IC50 value increases in the presence of METTL3 inhibitor.
24 h before cell treatment, homogenize, stain with Trypan blue and count viable cells using CellOMeter Auto T4. Dilute cells in media at 400 000 cells/ml to ensure an exponential growth the day after.
On treatment day, homogenize, stain with Trypan blue and count viable cells using CellOMeter Auto T4. Dilute to the proper cell seeding density according to Table 6 in cell media.
• Dispense drug (see Table 7) and METTL3 inhibitor in semi-log dose-response matrix and DMSO in 384-well plates using D300e Nanodispenser (Tecan). • 6× compound solution preparation: add 40 μL of cell medium in compound-containing plates and homogenize using the ViaFlo device (Integra) • Dispense 30 μl of cell suspension per well in three replicate 384-well white Ultra-Low-Attachment plates (Sbio) using ViaFlow device (Integra) • Transfer 6 μL of the 6× compound solution in each 30 μL cell suspension-containing plate. • Incubate at 37° C. 5% CO2 for 3 to 5 days.
• Add 35 μL CellTiter-Glo (Promega) in wells (vol/vol) using ViaFlo device (Integra). • Incubate at RT 10 min in the dark, with agitation the first minute, and read luminescence on the Ensight device (Perkin Elmer).
Raw data were converted to % viability by normalization to DMSO controls. IC50 determination was performed using GraphPad Prism and fitting curves to the standard nonlinear regression four parameter equation (Y=Bottom+(Top-Bottom)/(1+(IC50/X)^HillSlope)) least squares method, and synergy was assessed by comparison of IC50 values of the standard of care in the presence or absence of different concentrations of METTL3 inhibitor (see FIGS. 12 to 19).

Compound: O=C(NCc1ccc2cc(CNCC3CCC3)[nH]c2c1)c1cc(=O)n2ccccc2n1 [STM3480, N-[(2-{[(cyclobutylmethyl)amino]methyl}-1H-indol-6-yl)methyl]-4-oxo-4H-pyrido[1,2-a]pyrimidine-2-carboxamide]
- tumour growth compared to the vehicle control (mean tumour volume) ([1]; A20, FIG. 3): reduction of tumour growth
- Mean tumour volume d24 ([1]; A20, female BALB/c mice, STM3480 50 mg/kg p.o., anti PD1 10 mg/kg i.p. BIW, up to 3 weeks, 10 per group): 425 mm3
- progressive tumour growth, animals ([1]; A20, individual tumours (FIG. 4)): 8/10
- No. mice with complete regressions ([1]; A20, STM3480 50 mg/kg p.o., anti PD1 10 mg/kg i.p. BIW, 10 per group): 1
- Mean tumour volume d28 ([2]; CT26, female BALB/c mice, STM3480 50 mg/kg p.o., anti PD1 10 mg/kg i.p. BIW, up to 3 weeks): 768 mm3
- No. mice with regressions ([2]; CT26): 0
- cell viability with increasing concentrations of METTL3 inhibitor (Kasumi1 AML cell line; Kasumi1, combination with daunorubicin): dose-dependent decrease
- interaction with 5′-azacitidine (Kasumi1 AML cell line; Kasumi1 AML cell line): additive
- interaction with cytarabine (Kasumi1 AML cell line; Kasumi1 AML cell line): additive
- interaction with daunorubicin (Kasumi1 AML cell line; Kasumi1 AML cell line): additive
- interaction with venetoclax (Kasumi1 AML cell line; Kasumi1 AML cell line): synergistic
